Reference: ChEMBL document CHEMBL1155108, “SAR, pharmacokinetics, safety, and efficacy of glucokinase activating 2-(4-sulfonylphenyl)-N-thiazol-2-ylacetamides: discovery of PSN-GK1” (J Med Chem, 2008)
pEC50: −log10 of the molar value. ≈ marks a conversion by molar mass, not a printed value. Calls of active or inactive are those of the source. The calls are words filed in the database; no cut-off is given here.

Tests used:
[1] = Metabolic stability in mouse liver microsomes; assay type: ADME, Microsome
[2] = Plasma concentration in C57B1/6 mouse at 10 mg/kg, po after 0.5 hrs; assay type: ADME, organism-based; set-up: dose 10 mg/kg, route oral
[3] = Aqueous solubility at pH 6.5 buffer; assay type: physicochemical
Hexokinase-4 = target: T1, Hexokinase-4 (Homo sapiens, UniProt P35557); assay: Activation of GST fused human liver glucokinase assessed as generation of NADPH by G6PDH coupled assay
T1 sequence (P35557 whole entry): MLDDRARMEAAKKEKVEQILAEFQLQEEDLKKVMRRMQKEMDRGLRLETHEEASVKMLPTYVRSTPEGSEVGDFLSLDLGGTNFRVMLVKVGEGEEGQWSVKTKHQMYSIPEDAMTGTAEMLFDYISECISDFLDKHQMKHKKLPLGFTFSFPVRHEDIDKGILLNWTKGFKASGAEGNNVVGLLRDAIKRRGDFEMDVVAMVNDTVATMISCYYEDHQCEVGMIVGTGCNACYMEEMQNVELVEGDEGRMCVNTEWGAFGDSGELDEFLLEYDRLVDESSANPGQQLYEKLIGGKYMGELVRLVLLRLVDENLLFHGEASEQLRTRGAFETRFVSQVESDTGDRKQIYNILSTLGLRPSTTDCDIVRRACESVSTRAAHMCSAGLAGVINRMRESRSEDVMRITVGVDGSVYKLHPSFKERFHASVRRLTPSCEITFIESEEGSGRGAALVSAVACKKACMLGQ

Rattus norvegicus [4] = assay: Acute toxicity in rat at >=100 mg/kg, po; assay type: organism-based; settings: in vivo
Rattus norvegicus [5] = assay: Toxicity in Sprague-Dawley rat at 250 mg/kg, po; assay type: organism-based; set-up: dose 250 mg/kg, route oral; settings: in vivo
[6] = Tmax in Sprague-Dawley rat at 5 mg/10 mL/kg, po in 10% aqueous gelucire 44/14; assay type: ADME, organism-based; settings: in vivo, 5 mg/kg
[7] = Half life in Sprague-Dawley rat at 1 mg/5 mL/kg, iv in 40% DMSO; assay type: ADME, organism-based; settings: in vivo, 1 mg/kg
[8] = AUC (0 to 24 hrs) in Sprague-Dawley rat at 250 mg/kg, po; assay type: ADME, organism-based; set-up: time < 24 hr, dose 250 mg/kg, route oral; settings: plasma
[9] = Volume of distribution at steady state in Sprague-Dawley rat at 1 mg/5 mL/kg, iv in 40% DMSO; assay type: ADME, organism-based; settings: in vivo, 1 mg/kg, read-out: Vdss
[10] = AUC (0 to infinity) in Sprague-Dawley rat at 5 mg/10 mL/kg, po in 10% aqueous gelucire 44/14; assay type: ADME, organism-based; set-up: dose 10 mL/kg, time infinity, route oral; settings: plasma, 5 mg/kg
[11] = AUC (0 to infinity) in Sprague-Dawley rat at 1 mg/5 mL/kg, iv in 40% DMSO; assay type: ADME, organism-based; set-up: dose 5 mL/kg, time infinity, route intravenous; settings: plasma, 1 mg/kg
[12] = Cmax in Sprague-Dawley rat at 250 mg/kg, po; assay type: ADME, organism-based; set-up: dose 250 mg/kg, route oral; settings: in vivo
Rattus norvegicus [13] = assay: Reduction in blood glucose level in fasted Sprague-Dawley rat at 10 mg/kg, po for 360 mins; assay type: functional, organism-based; set-up: dose 10 mg/kg
[14] = Oral bioavailability in Sprague-Dawley rat at 5 mg/10 mL/kg in 10% aqueous gelucire 44/14; assay type: ADME, organism-based; settings: in vivo, 5 mg/kg
[15] = Half life in Sprague-Dawley rat at 5 mg/10 mL/kg, po in 10% aqueous gelucire 44/14; assay type: ADME, organism-based; settings: in vivo, 5 mg/kg
[16] = Cmax in Sprague-Dawley rat at 5 mg/10 mL/kg, po in 10% aqueous gelucire 44/14; assay type: ADME, organism-based; settings: in vivo, 5 mg/kg
[17] = Clearance in Sprague-Dawley rat at 1 mg/5 mL/kg, iv in 40% DMSO; assay type: ADME, organism-based; settings: in vivo, 1 mg/kg
[18] = Plasma concentration in C57B1/6 mouse at 5 mg/kg, po after 0.5 hrs; assay type: ADME, organism-based; set-up: dose 5 mg/kg, route oral

Compound	half-life [1] [h]	concentration at 0.5 h [2] [ng/mL]	solubility [3] [µg/mL]	pEC50 (Hexokinase-4)	also measured
O=C(Nc1nccs1)[C@H](CC1CCOCC1)c1ccc(S(=O)(=O)C2CC2)cc1	2.4	1860	147 (≈ 350 µM)	6.24	Activity (Rattus norvegicus [4]): Toxic
CS(=O)(=O)c1ccc([C@@H](CC2CCOCC2)C(=O)Nc2nccs2)cc1	> 3.33	5150	410 (≈ 1040 µM)	5.46	Activity (Rattus norvegicus [4]): Toxic
O=C(Nc1ncc(F)s1)[C@H](CC1CCOCC1)c1ccc(S(=O)(=O)C2CCCC2)cc1	0.267	168	24 (≈ 51.4 µM)	7.15	–
O=C(Nc1cnccn1)/C(=C/c1cccs1)c1ccccc1	–	–	–	4.58	–
CS(=O)(=O)c1ccc(C(=Cc2cccs2)C(=O)Nc2nccs2)cc1	–	–	–	6.25	–
O=C(Nc1ncc(F)s1)[C@H](CC1CCOCC1)c1ccc(S(=O)(=O)C2CCC2)cc1	0.45	–	60 (≈ 133 µM)	6.85	concentration at 0.5 h [18]: 1180 ng/mL

Now from value to molecule, other results behind:

half-life [1] [h]	concentration at 0.5 h [2] [ng/mL]	solubility [3] [µg/mL]	pEC50 (Hexokinase-4)	Compound	also measured
2.08	8280	298 (≈ 722 µM)	5.84	CS(=O)(=O)c1ccc([C@@H](CC2CCOCC2)C(=O)Nc2ncc(F)s2)cc1	–
> 3.33	3680	13 (≈ 33.1 µM)	5.64	CS(=O)(=O)c1ccc(/C(=C\C2CCOCC2)C(=O)Nc2nccs2)cc1	–
> 3.33	–	97 (≈ 246 µM)	5.05	CS(=O)(=O)c1ccc(C(CC2CCOCC2)C(=O)Nc2nccs2)cc1 (stereo not drawn)	–
0.883	1640	40 (≈ 92 µM)	6.24	Cc1cnc(NC(=O)[C@H](CC2CCOCC2)c2ccc(S(=O)(=O)C3CC3)cc2)s1	–
–	–	–	< 5.00	CS(=O)(=O)c1ccc([C@H](CC2CCOCC2)C(=O)Nc2nccs2)cc1	–
1.5	5010	58 (≈ 132 µM)	–	O=C(Nc1ncc(F)s1)[C@H](CC1CCOCC1)c1ccc(S(=O)(=O)C2CC2)cc1	Activity (Rattus norvegicus [5]): Non-toxic; Tmax [6]: 1 h; half-life [7]: 3.2 h; AUC(0-t) at 24 h [8]: 898000 ng·h/mL; Vd [9]: 2.1 L/kg; AUC(0-inf) [10]: 10700 ng·h/mL; AUC(0-inf) [11]: 1660 ng·h/mL; Cmax [12]: 49200 ng/mL; Activity (Rattus norvegicus [13]): Active; bioavailability [14]: 129%; half-life [15]: 3.4 h; Cmax [16]: 1130 ng/mL; clearance [17]: 10 mL/min/kg
–	–	–	4.97	O=C(Nc1nccs1)/C(=C/c1cccs1)c1ccccc1	–
